Reference: patent US20080050819A1, “Constructs for Marker Excision Based on Dual-Function Selection Marker” (BASF Plant Science GmbH, priority 2004, published 2008)
“Also recorded” adds a separate entry of the source.

Experiments:
[1] = system: wild-type plants (A. thaliana); experiment: Toxicity of keto acids to wild-type plants on half strength MS agar plates; type: in vivo, Arabidopsis thaliana; details: for effect on growth of A. thaliana: in vivo
Method: (§1) To evaluate the toxic action of 3-methyl-2-oxopentanoate and 3-methyl-2-oxobutanoate, wild-type plants were sown on two sets of half strength MS agar plates, each containing one of the compounds in a range of concentrations (0.01-10 mM). […] For 3-methyl-2-oxobutanoate, 5 mM was required for complete inhibition. Further, several attempts were made to probe the nature of D-serine's toxicity.

[2] = system: DAAO transgenic plants; experiment: Germination of DAAO transgenic plants on D-Asn (cytosolic and peroxisomal DAAO); type: in vivo; details: 30 mM; cytosolic and peroxisomal DAAO constructs vs wild-type
[3] = system: wild-type seedlings; experiment: Spray application of D-amino acids on soil-grown wild-type seedlings; type: in vivo, Arabidopsis thaliana; details: one-week-old seedlings, 50 mM, sprayed on three consecutive days
Method: (§2) FIG. 5: Selection of primary transformants with the DAAO marker. • (a-c) DAAO T1 seedlings on media containing 3 mM D-alanine (a), 3 mM D-serine (b) and 50 μg ml-1 kanamycin (c). Seeds were surface-sterilized and sown on half-strength MS plates with 0.5% (wt/vol) sucrose, 0.8% (wt/vol) agar and the respective selective compound, then grown for 5 d after germination under 16 h photoperiods at 24° C. • (d) DAAO transgenic plants grown on soil photographed after selection by spraying with (1) D-alanine and (2) D-serine, and wild-type plants sprayed with (3) D-alanine and (4) D-serine. Eight seeds per plot and treatment were sown on soil, and grown for 7 d after germination before applying the selective treatment, which consisted of spraying with aqueous 50 mM solutions of D-alanine or D-serine with 0.05% Tween 80 on three consecutive days.
(§3) FIG.: 11 D-amino acids are applicable by spraying procedure DAAO transgenic plants grown on soil photographed after selection by spraying with (1) D-alanine and (2) D-serine, and wild-type plants sprayed with (3) D-alanine and (4) D-serine. Eight seeds per plot and treatment were sown on soil, and grown for 7 d after germination before applying the selective treatment, which consisted of spraying with aqueous 50 mM solutions of D-alanine or D-serine with 0.05% Tween 80 on three consecutive days.

[4] = system: wild-type Arabidopsis thaliana; experiment: Growth of wild-type A. thaliana on D-amino acid media; type: in vivo; details: for effect on growth of wild-type plantlets: FIG. 3, half-concentrated MS medium supplemented at 3 mM (Panel A) or 30 mM (Panel B); for effect on wild-type plants: concentration not stated / various concentrations
Method: FIG. 3 Effect of various D-amino acids on plant growth. • Wild type Arabidopsis thaliana plantlets were grown on half-concentrated Murashige-Skoog medium (0.5% (wt/vol) sucrose, 0.8% (wt/vol) agar) supplemented with the indicated D-amino acid at either 3 mM (Panel A) or 30 mM (Panel B).
(§4) FIG. 4 D-amino acid dose responses of dao1 transgenic and wild-type A. thaliana. • (a-d) Growth of dao1 transgenic line 3:7 (white), 10:7 (light gray), 13:4 (gray) and wild-type (black) plants, in fresh weight per plant, on media containing various concentrations of D-serine, D-alanine, D-isoleucine and D-valine in half-strength MS with 0.5% (wt/vol) sucrose and 0.8% (wt/vol) agar. Different concentration ranges were used for different D-amino acids. The plants were grown for 10 d after germination under 16 h photoperiods at 24° C.; n=10±s.e.m., except for plants grown on D-isoleucine, where smaller Petri dishes were used, (n=6±s.e.m.). • (e-l) Photographs of dao1 transgenic line 10:7 (e-h) and wild-type plants (i-l), grown for 10 d on the highest concentrations of the D-amino acid shown in the respective graphs above. All pictures have the same magnification. FW, fresh weight.

[5] = system: wild-type Arabidopsis thaliana; experiment: as above; type: in vivo; details: 30 mM, FIG. 2
[6] = system: dao1 transgenic A. thaliana; experiment: Growth of dao1 (DAAO) transgenic A. thaliana on D-amino acid media; type: in vivo, Arabidopsis thaliana
Method: as §4
Therefore, plants containing the construct were tested as described above on two sets of media, one containing D-isoleucine and the other containing D-valine at various concentrations, to assess whether DAAO could also be used as a counter-selection marker. Unambiguous counter-selection selection was achieved when seeds were sown on either D-isoleucine or D-valine at concentrations greater than 10 mM (FIG. 4 c,d).

[7] = system: DAAO transgenic seedlings; experiment: Spray application of D-amino acids on soil-grown DAAO transgenic seedlings; type: in vivo, Arabidopsis thaliana; details: 50 mM spray
Method: as §2, §3

[8] = biological target: T1, DAAO (Rhodotorula toruloides, UniProt P80324); experiment: DAAO incubation of cell-free plant extracts, keto acid production by HPLC; type: biochemical, Rhodotorula gracilis; details: cell-free extracts from dao1 transgenic line 10:7
T1 construct: expressed in transfected cells; host or cells: Arabidopsis thaliana (Col-0) dao1 transgenic line 10:7, stably transformed with pPCV702:dao1 (CaMV 35S); crude soluble protein extract
T1 sequence (P80324 25-368): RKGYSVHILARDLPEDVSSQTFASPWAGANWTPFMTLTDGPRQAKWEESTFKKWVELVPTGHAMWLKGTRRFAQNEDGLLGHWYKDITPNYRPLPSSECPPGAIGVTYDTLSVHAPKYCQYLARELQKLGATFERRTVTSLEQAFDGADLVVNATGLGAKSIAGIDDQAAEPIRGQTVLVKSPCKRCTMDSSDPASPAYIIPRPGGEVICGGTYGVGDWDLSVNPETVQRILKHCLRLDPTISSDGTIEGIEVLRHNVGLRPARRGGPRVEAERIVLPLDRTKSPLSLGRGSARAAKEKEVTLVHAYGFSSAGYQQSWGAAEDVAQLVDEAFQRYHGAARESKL
Method: Soluble proteins were extracted by shaking 0.1 g samples of plant material that had been finely pulverized in a 1.5 ml Eppendorf tube in 1 ml of 0.1 M potassium phosphate buffer, pH 8. DAAO activity was then assayed as follows. Reaction mixtures were pre-pared containing 2,120 μl of 0.1 M potassium phosphate buffer, pH 8, 80 μl of crude protein extract and 100 μl of 0.3 M D-alanine. The samples were incubated for 2 h at 30° C. The enzyme activity was then assessed, by measuring the increase in absorbance at 220 nm (E=1.090 M^−1 cm^−1) associated with the conversion of D-alanine to pyruvate, after transferring the test tubes to boiling water for 10 min to stop the reaction. In control reactions, D-alanine was added immediately before boiling. One unit of DAAO activity is defined as the turnover of one micromole of substrate per minute, and activity was expressed per gram plant biomass (fresh weight). The breakdown of D-isoleucine and D-valine in DAAO incubations, and the associated production of 3-methyl-2-oxopentanoate and 3-methyl-2-oxobutanoate, were analyzed by high-performance liquid chromatography. In other respects the reactions were carried out as described above.

[9] = system: poplar, tobacco, barley, maize, tomato and spruce; experiment: Susceptibility of other plant species to D-serine; type: in vivo; details: concentrations similar to those toxic for A. thaliana; FIG. 6+7
[10] = system: T1 seeds of transgenic Arabidopsis plants; experiment: Selection of DAAO (35S:dao1 / pNos:nptII) T1 seeds on selective media; type: in vivo, Arabidopsis thaliana; details: FIG. 4a
Description: Flowering A. thaliana plants were then transformed by the floral dip method (Clough S J & Bent A F (1998) Plant J. 16, 735-743 (1998) with the transgenic Agrobacterium tumefaciens strain carrying the vector described above by dipping for 10-20 seconds into the Agrobacterium solution. Afterwards the plants were kept in the greenhouse until seeds could be harvested. Transgenic seeds were selected by plating surface sterilized seeds on growth medium A (4.4 g/L MS salts [Sigma-Aldrich], 0.5 g/L MES [Duchefa]; 8 g/L Plant Agar [Duchefa]) supplemented with 50 mg/L kanamycin for plants carrying the nptII resistance marker, or 0.3 to 30 mM D-amino acids (as described below) for plants comprising the dual-function marker of the invention. Surviving plants were transferred to soil and grown in the greenhouse.
T1 seeds of transgenic Arabidopsis plants were surface-sterilized and sown in Petri plates that were sealed with gas-permeable tape. The growth medium was half strength MS19 with 0.5% (wt/vol) sucrose and 0.8% (wt/vol) agar, plus 3 mM D-alanine, 3 mM D-serine or 50 μg/ml kanamycin as the selective agent. […] To evaluate the selection efficiency on different substrates, 2,074, 1,914 and 1,810 T1 seeds were sown on D-alanine-, D-serine- and kanamycin-selective plates, respectively, and the number of surviving seedlings was counted (44, 32 and 43, respectively). […]

[11] = system: wildtype A. thaliana; experiment: Attempted rescue of wild-type A. thaliana grown on lethal D-serine with potential inhibitors of D-serine toxicity; type: in vivo, Arabidopsis thaliana; details: lethal concentrations of D-serine, added separately and in combinations, 0.001-50 μg ml-1
Method: as §1

[12] = wild-type plants, half strength MS agar, tested range 0.01-10 mM
[13] = concentration not stated / various concentrations

`CC(C)C(=O)C(=O)O` [3-methyl-2-oxobutanoate] was tested, and the “effect on growth of A. thaliana” value [1] was “impaired growth” and the “concentration giving total (complete) growth inhibition” value [1, 12] was 5 mM.
For `CCC(C)C(=O)C(=O)O` (stereo not drawn) [3-methyl-2-oxopentanoate], the “effect on growth of A. thaliana” value [1] was “impaired growth”, the “concentration at which plants were slightly affected” value [1, 12] was 0.1 mM and the “concentration giving total (complete) growth inhibition” value [1, 12] was 1 mM.
In the case of `NC(=O)C[C@@H](N)C(=O)O` [D-Asn, D-asparagine], the “inhibition of germination of DAAO transgenic plants” value [2] is reported as “inhibited significantly more than the wild-type”.
`C[C@@H](N)C(=O)O` [D-alanine] was tested, and the “effect of sprayed application on wild-type seedlings” value [3] was “effectively killed”, the “effect on growth of wild-type plantlets” value [4] was “severe phytotoxic effects” and the “effect on wild-type plants” value [4] was “inhibited even at quite low concentrations; also recorded: inhibited growth”. For the same compound, the “effect on wild-type plantlets” value [5] was “toxic effect”, the “effect on transgenic (DAAO) plants” value ([6]; 30 mM) was “no severe damage; also recorded: no negative effect” and the “effect on transgenic (DAAO) plants” value [6, 13] was “detoxify; also recorded: developed normally”. The “response of transgenic seedlings to foliar application” value [7] was “resistant”.
With `CC[C@@H](C)[C@@H](N)C(=O)O` [D-isoleucine] the “effect on growth of wild-type plantlets” value [4] was “no significant effects”, the “effect on wild-type plants” value [4] was “not toxic; also recorded: minor effects; also recorded: not the wild-type plants; also recorded: no sign of toxicity” and the “effect on wild-type plantlets” value [5] was “no severe damage”. The “effect on transgenic (DAAO) plants” value ([6]; 30 mM) was “toxic effect”, the “effect on transgenic (DAAO) plants” value [6, 13] was “strong negative influence; also recorded: inhibit growth; also recorded: effectively killed” and the “increase in production of the keto acid (3-methyl-2-oxopentanoate / 3-methyl-2-oxobutanoate) compared to extracts of wild-type plants” value [8] was 15 fold.
With `N[C@H](CO)C(=O)O` [D-serine] the “toxicity to other plant species” value [9] was “toxic effects; also recorded: susceptible”, the “effect of sprayed application on wild-type seedlings” value [3] was “effectively killed” and the “effect on growth of wild-type plantlets” value [4] was “severe phytotoxic effects”. For the same compound, the “effect on wild-type plants” value [4] was “inhibited even at quite low concentrations; also recorded: inhibited growth”, the “effect on transgenic (DAAO) plants” value ([6]; 3 mM) was “slightly inhibited the growth” and the “effect on transgenic (DAAO) plants” value ([6]; 30 mM) was “significant growth inhibition”. For the same compound, the “effect on transgenic (DAAO) plants” value [6, 13] was “detoxify; also recorded: developed normally”, the “concentration at which efficient selection was achieved” value [10] was “lower than 1 mM” and the “response of transgenic seedlings to foliar application” value [7] was “resistant”.
In the case of `CC(C)[C@@H](N)C(=O)O` [D-valine], the “effect on wild-type plants” value [4] is reported as “not toxic; also recorded: minor effects; also recorded: not the wild-type plants; also recorded: moderately negative effect”, the “effect on transgenic (DAAO) plants” value [6, 13] is reported as “strong negative influence; also recorded: inhibit growth” and the “increase in production of the keto acid (3-methyl-2-oxopentanoate / 3-methyl-2-oxobutanoate) compared to extracts of wild-type plants” value [8] is reported as 7 fold.
In the case of `CC[C@H](C)[C@H](N)C(=O)O` [L-isoleucine], the “effect on wild-type plants” value [4] is reported as “negative effects”.
For `N[C@@H](CO)C(=O)O` [L-serine], the “rescue (mitigation) of D-serine toxicity” value [11] was “without any success”.
In the case of `CC(C)C[C@H](N)C(=O)O` [leucine], the “rescue (mitigation) of D-serine toxicity” value [11] is reported as “without any success”.
In the case of `CC(C)(CO)[C@@H](O)C(=O)NCCC(=O)O` [pantothenic acid], the “rescue (mitigation) of D-serine toxicity” value [11] is reported as “could not be mitigated”.
With `C[C@@H](O)[C@H](N)C(=O)O` [threonine] the “rescue (mitigation) of D-serine toxicity” value [11] was “without any success”.
`NCCC(=O)O` [β-alanine] was tested, and the “rescue (mitigation) of D-serine toxicity” value [11] was “without any success” and the “rescue (mitigation) of D-serine toxicity” value ([11]; listed as â-alanine) was “could not be mitigated”.
In the case of calcium-pantothenate, the “rescue (mitigation) of D-serine toxicity” value [11] is reported as “without any success”.
